How the values were obtained:
[1] = system: skin; conditions: in vivo
Source text: Menthol can optionally be added to overcome the burning sensation caused by the capsaicin. […] 13, 2012 has reported that skin can burn with menthol concentrations above 3% (http://www.fda.gov/Drugs/DrugSafety/ucm318858.htm). Thus, in one embodiment, the concentration of menthol in the ethosome compositions is less than about 3% by weight. In another embodiment, the concentration of menthol in the ethosome compositions is about 2% by weight.

[2] = system: skin; conditions: FDA Safety Announcement Sep. 13, 2012; cited from earlier work

Structure (SMILES): CC1CCC(C(C)C)C(O)C1 (centres unmarked) [Menthol]
- burning sensation [1]: can cause a burning sensation on its own
- menthol concentrations at which skin can burn [2]: above 3%
